Like-named read-outs stand apart in the source and are kept apart here. *1 amine or outer side, *2 acyl side, *3 side chain or, on linkers, in order; H or OH if unused. Where a SMILES comes first, the peptide text is derived from it. Side-chain parts run from the residue outwards. [ ]: non-standard residue; d: D form. The star is where a group is joined. αMePhe(2-F) = C[C@](N)(Cc1ccccc1F)C(=O)O; γGlu = O=C(O)[C@H](CCC(=O)[*:2])N[*:1]; C14 diacid = O=C(O)CCCCCCCCCCCCC(=O)*; αMeY = C[C@](N)(Cc1ccc(O)cc1)C(=O)O; αMeF = C[C@](N)(Cc1ccccc1)C(=O)O; 4Pal = N[C@@H](Cc1ccncc1)C(=O)O; αMeL = CC(C)C[C@](C)(N)C(=O)O; Orn = NCCC[C@H](N)C(=O)O; AEEA = NCCOCCOCC(=O)O; Aib = CC(C)(N)C(=O)O
Columns and labels:
Format in all cases: cell-based
hGCGR = biological target: T1, hGCGR (Homo sapiens, UniProt P47871); assay: Functional cAMP formation (HTRF) in HEK-293 clonal cells expressing hGCGR, 0.1% bovine casein, without or with 1.0% human serum albumin; settings: geometric mean, read-out: hGCGR EC50, nM (SEM, n)
T1 construct: expressed in transfected cells
How it was run: (§1)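 Readings of the HTRF 665/620 nm ratio, which falls as cAMP rises, were converted to nM cAMP using a standard curve after 30 min peptide exposure at 37° C.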

hGLP-1R = hGLP-1R (Homo sapiens, UniProt P43220); assay: Functional cAMP formation (HTRF) in HEK-293 clonal cells expressing hGLP-1R, 0.1% bovine casein, without or with 1.0% human serum albumin; set-up: expressed in transfected cells; settings: for Emax: read-out: hGLP-1R Emax, % ± SEM; for EC50: geometric mean, read-out: hGLP-1R EC50, nM (SEM, n)
How it was run: as §1

hGIPR = biological target: T2, hGIPR (Homo sapiens, UniProt P48546); assay: Functional cAMP formation (HTRF) in HEK-293 clonal cells expressing hGIPR, 0.1% bovine casein, without or with 1.0% human serum albumin; settings: for Emax: read-out: hGIPR Emax, % ± SEM; for EC50: geometric mean, read-out: hGIPR EC50, nM (SEM, n)
T2 construct: expressed in transfected cells
T2 sequence (P48546 22-466): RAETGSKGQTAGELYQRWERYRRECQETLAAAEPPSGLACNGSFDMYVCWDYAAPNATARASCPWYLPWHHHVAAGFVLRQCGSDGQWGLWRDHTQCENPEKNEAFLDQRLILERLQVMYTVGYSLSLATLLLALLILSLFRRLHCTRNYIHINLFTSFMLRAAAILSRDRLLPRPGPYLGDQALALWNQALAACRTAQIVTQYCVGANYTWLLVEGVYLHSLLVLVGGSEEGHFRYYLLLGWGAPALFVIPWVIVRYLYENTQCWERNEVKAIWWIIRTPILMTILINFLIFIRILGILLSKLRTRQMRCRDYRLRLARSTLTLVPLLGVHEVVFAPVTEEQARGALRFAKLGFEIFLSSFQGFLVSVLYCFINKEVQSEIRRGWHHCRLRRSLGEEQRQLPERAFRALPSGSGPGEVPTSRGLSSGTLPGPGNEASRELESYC
How it was run: as §1

[1] = cAMP, incubated at 37° C., 0.1% bovine casein (no human serum albumin)
[2] = HEK293, percent of maximal response to GLP-1(7-36)NH2, 37° C., 0.1% bovine casein, arithmetic mean
[3] = HEK293, percent of maximal response to GIP(1-42)NH2, 37° C., 0.1% bovine casein, arithmetic mean
[4] = 0.1% bovine casein and 1.0% human serum albumin, 37° C.
[5] = HEK293, 0.1% bovine casein and 1.0% human serum albumin, 37° C., percent of maximal response to GIP(1-42)NH2

T1 sequence (P47871 26-477): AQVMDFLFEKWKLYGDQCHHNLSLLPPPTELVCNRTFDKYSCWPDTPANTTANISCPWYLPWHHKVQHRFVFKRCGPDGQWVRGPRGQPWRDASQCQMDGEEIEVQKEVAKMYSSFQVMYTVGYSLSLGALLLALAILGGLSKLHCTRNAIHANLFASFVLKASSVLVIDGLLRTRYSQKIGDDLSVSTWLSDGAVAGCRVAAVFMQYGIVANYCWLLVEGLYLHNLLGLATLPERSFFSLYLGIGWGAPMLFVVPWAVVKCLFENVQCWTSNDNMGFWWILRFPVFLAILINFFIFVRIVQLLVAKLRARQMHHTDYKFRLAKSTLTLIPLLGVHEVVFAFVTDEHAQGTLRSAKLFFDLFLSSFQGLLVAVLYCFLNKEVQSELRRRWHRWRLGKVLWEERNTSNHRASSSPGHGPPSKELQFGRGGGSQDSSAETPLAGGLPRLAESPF
Sequence of hGLP-1R (P43220 24-463): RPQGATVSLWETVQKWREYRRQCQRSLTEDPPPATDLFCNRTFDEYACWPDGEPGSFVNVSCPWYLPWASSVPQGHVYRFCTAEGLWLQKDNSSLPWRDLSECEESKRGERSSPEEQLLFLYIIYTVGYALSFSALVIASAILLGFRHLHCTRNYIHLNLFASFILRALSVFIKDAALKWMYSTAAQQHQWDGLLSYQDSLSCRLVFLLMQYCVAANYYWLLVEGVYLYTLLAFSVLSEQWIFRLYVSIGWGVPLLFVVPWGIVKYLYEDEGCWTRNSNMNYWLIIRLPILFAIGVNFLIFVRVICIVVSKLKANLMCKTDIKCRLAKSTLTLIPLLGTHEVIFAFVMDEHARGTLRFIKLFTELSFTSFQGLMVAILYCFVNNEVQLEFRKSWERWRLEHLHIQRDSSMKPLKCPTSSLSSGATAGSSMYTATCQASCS

Compound | EC50 (hGCGR; [1]) | Emax (hGLP-1R; [2]) | Emax (hGIPR; [3]) | EC50 (hGIPR; [1]) | EC50 (hGCGR; [4]) | EC50 (hGLP-1R; [1]) | EC50 (hGIPR; [4]) | Emax (hGIPR; [5]) | EC50 (hGLP-1R; [4]) | Emax (hGLP-1R; HEK293, 0.1% bovine casein and 1.0% human serum albumin, 37° C., percent of maximal response to GLP-1(7-36)NH2)
CC[C@H](C)[C@H](NC(=O)[C@H](CC(C)C)NC(=O)[C@H](Cc1ccc(O)cc1)NC(=O)[C@H](CCCCNC(=O)COCCOCCNC(=O)COCCOCCNC(=O)CC[C@H](NC(=O)CCCCCCCCCCCCC(=O)O)C(=O)O)NC(=O)[C@@H](NC(=O)[C@](C)(Cc1ccccc1)NC(=O)[C@H](CCC(=O)O)NC(=O)C(C)(C)NC(=O)[C@H](CCC(N)=O)NC(=O)[C@H](C)NC(=O)[C@H](CCCCNC(=O)COCCOCCNC(=O)COCCOCCNC(=O)CC[C@H](NC(=O)CCCCCCCCCCCCC(=O)O)C(=O)O)NC(=O)[C@H](CCCN)NC(=O)[C@H](CC(=O)O)NC(=O)[C@H](CC(C)C)NC(=O)[C@](C)(CC(C)C)NC(=O)[C@@H](NC(=O)[C@H](CO)NC(=O)[C@H](Cc1ccncc1)NC(=O)[C@H](CC(=O)O)NC(=O)[C@H](CO)NC(=O)[C@@H](NC(=O)[C@](C)(Cc1ccccc1F)NC(=O)[C@@H](NC(=O)CNC(=O)[C@H](CCC(=O)O)NC(=O)C(C)(C)NC(=O)[C@@H](N)Cc1ccc(O)cc1)[C@@H](C)O)[C@@H](C)O)[C@@H](C)CC)[C@@H](C)CC)C(=O)N[C@@H](CCC(=O)O)C(=O)NCC(=O)NCC(=O)N1CCC[C@H]1C(=O)N[C@@H](CO)C(=O)N[C@@H](CO)C(=O)NCC(=O)N[C@@H](C)C(=O)N1CCC[C@H]1C(=O)N1CCC[C@H]1C(=O)N1CCC[C@H]1C(=O)N[C@@H](CO)C(N)=O [Example 85] (H-Y[Aib]EGT[αMePhe(2-F)]TSD[4Pal]SI[αMeL]LD[Orn]K([AEEA-AEEA-γGlu-C14 diacid])AQ[Aib]E[αMeF]IK([AEEA-AEEA-γGlu-C14 diacid])YLIEGGPSSGAPPPS-NH2) | > 9950 nM | 95.3% | 91.7% | 0.0312 nM |  |  |  |  |  | 
CC[C@H](C)[C@H](NC(=O)[C@H](CC(C)C)NC(=O)[C@](C)(Cc1ccc(O)cc1)NC(=O)[C@@H](CCC(=O)O)NC(=O)[C@@H](NC(=O)[C@H](Cc1ccccc1)NC(=O)[C@H](CCC(=O)O)NC(=O)C(C)(C)NC(=O)[C@H](CCC(N)=O)NC(=O)[C@H](C)NC(=O)[C@H](CCCCNC(=O)COCCOCCNC(=O)COCCOCCNC(=O)CC[C@H](NC(=O)CCCCCCCCCCCCC(=O)O)C(=O)O)NC(=O)[C@H](CCCN)NC(=O)[C@H](CC(=O)O)NC(=O)[C@H](CC(C)C)NC(=O)[C@](C)(CC(C)C)NC(=O)[C@@H](NC(=O)[C@H](CO)NC(=O)[C@](C)(Cc1ccccc1F)NC(=O)[C@H](CC(=O)O)NC(=O)[C@H](CO)NC(=O)[C@@H](NC(=O)[C@](C)(Cc1ccccc1F)NC(=O)[C@@H](NC(=O)CNC(=O)[C@H](CCC(=O)O)NC(=O)C(C)(C)NC(=O)[C@@H](N)Cc1ccc(O)cc1)[C@@H](C)O)[C@@H](C)O)[C@@H](C)CC)[C@@H](C)CC)C(=O)N[C@@H](CCC(=O)O)C(=O)NCC(=O)NCC(=O)N[C@@H](CCCCNC(=O)COCCOCCNC(=O)COCCOCCNC(=O)CC[C@H](NC(=O)CCCCCCCCCCCCC(=O)O)C(=O)O)C(=O)N[C@@H](CO)C(=O)N[C@@H](CO)C(=O)NCC(=O)N[C@@H](C)C(=O)N1CCC[C@H]1C(=O)N1CCC[C@H]1C(=O)N1CCC[C@H]1C(=O)N[C@@H](CO)C(N)=O [Example 87] | > 9950 nM |  | 84.7% |  | > 9950 nM | 1.34 nM | 4.84 nM | 89.2% |  | 
CC[C@H](C)[C@H](NC(=O)[C@H](CC(C)C)NC(=O)[C@](C)(Cc1ccc(O)cc1)NC(=O)[C@@H](CCC(=O)O)NC(=O)[C@@H](NC(=O)[C@](C)(Cc1ccccc1F)NC(=O)[C@H](CCC(=O)O)NC(=O)C(C)(C)NC(=O)[C@H](CCC(N)=O)NC(=O)[C@H](C)NC(=O)[C@H](CCCCNC(=O)COCCOCCNC(=O)COCCOCCNC(=O)CC[C@H](NC(=O)CCCCCCCCCCCCC(=O)O)C(=O)O)NC(=O)[C@H](CCCN)NC(=O)[C@H](CC(=O)O)NC(=O)[C@H](CC(C)C)NC(=O)[C@](C)(CC(C)C)NC(=O)[C@@H](NC(=O)[C@H](CO)NC(=O)[C@H](Cc1ccncc1)NC(=O)[C@H](CC(=O)O)NC(=O)[C@H](CO)NC(=O)[C@@H](NC(=O)[C@](C)(Cc1ccccc1F)NC(=O)[C@@H](NC(=O)CNC(=O)[C@H](CCC(=O)O)NC(=O)C(C)(C)NC(=O)[C@@H](N)Cc1ccc(O)cc1)[C@@H](C)O)[C@@H](C)O)[C@@H](C)CC)[C@@H](C)CC)C(=O)N[C@@H](CCC(=O)O)C(=O)NCC(=O)NCC(=O)N[C@@H](CCCCNC(=O)COCCOCCNC(=O)COCCOCCNC(=O)CC[C@H](NC(=O)CCCCCCCCCCCCC(=O)O)C(=O)O)C(=O)N[C@@H](CO)C(=O)N[C@@H](CO)C(=O)NCC(=O)N[C@@H](C)C(=O)N1CCC[C@H]1C(=O)N1CCC[C@H]1C(=O)N1CCC[C@H]1C(=O)N[C@@H](CO)C(N)=O [Example 88] | > 9950 nM | 97.1% | 85.1% |  | > 9950 nM |  | 0.591 nM | 80.3% |  | 
CC[C@H](C)[C@H](NC(=O)[C@H](CC(C)C)NC(=O)[C@](C)(Cc1ccc(O)cc1)NC(=O)[C@@H](CCC(=O)O)NC(=O)[C@@H](NC(=O)[C@H](Cc1ccccc1)NC(=O)[C@H](CCC(=O)O)NC(=O)C(C)(C)NC(=O)[C@H](CCC(N)=O)NC(=O)[C@H](C)NC(=O)[C@H](CCCCNC(=O)COCCOCCNC(=O)COCCOCCNC(=O)CC[C@H](NC(=O)CCCCCCCCCCCCC(=O)O)C(=O)O)NC(=O)[C@H](CCCN)NC(=O)[C@H](CC(=O)O)NC(=O)[C@H](CC(C)C)NC(=O)[C@](C)(CC(C)C)NC(=O)[C@@H](NC(=O)C(C)(C)NC(=O)[C@H](Cc1ccncc1)NC(=O)[C@H](CC(=O)O)NC(=O)[C@H](CO)NC(=O)[C@@H](NC(=O)[C@](C)(Cc1ccccc1F)NC(=O)[C@@H](NC(=O)CNC(=O)[C@H](CCC(=O)O)NC(=O)C(C)(C)NC(=O)[C@@H](N)Cc1ccc(O)cc1)[C@@H](C)O)[C@@H](C)O)[C@@H](C)CC)[C@@H](C)CC)C(=O)N[C@@H](CCC(=O)O)C(=O)NCC(=O)NCC(=O)N[C@@H](CCCCNC(=O)COCCOCCNC(=O)COCCOCCNC(=O)CC[C@H](NC(=O)CCCCCCCCCCCCC(=O)O)C(=O)O)C(=O)N[C@@H](CO)C(=O)N[C@@H](CO)C(=O)NCC(=O)N[C@@H](C)C(=O)N1CCC[C@H]1C(=O)N1CCC[C@H]1C(=O)N1CCC[C@H]1C(=O)N[C@@H](CO)C(N)=O [Example 89] | > 9950 nM |  | 88.9 ± 3.76% | 0.0301 nM | > 9950 nM | 1.03 nM |  | 94.2% |  | 
CC[C@H](C)[C@H](NC(=O)[C@H](CC(C)C)NC(=O)[C@](C)(Cc1ccc(O)cc1)NC(=O)[C@@H](CCC(=O)O)NC(=O)[C@@H](NC(=O)[C@H](Cc1ccccc1)NC(=O)[C@H](CCC(=O)O)NC(=O)C(C)(C)NC(=O)[C@H](CCC(N)=O)NC(=O)[C@H](C)NC(=O)[C@H](CCCCNC(=O)COCCOCCNC(=O)COCCOCCNC(=O)CC[C@H](NC(=O)CCCCCCCCCCCCC(=O)O)C(=O)O)NC(=O)[C@H](CCCN)NC(=O)[C@H](CC(=O)O)NC(=O)[C@H](CC(C)C)NC(=O)[C@](C)(CC(C)C)NC(=O)[C@@H](NC(=O)[C@H](CO)NC(=O)[C@@H](NC(=O)[C@H](CC(=O)O)NC(=O)[C@H](CO)NC(=O)[C@@H](NC(=O)[C@](C)(Cc1ccccc1F)NC(=O)[C@@H](NC(=O)CNC(=O)[C@H](CCC(=O)O)NC(=O)C(C)(C)NC(=O)[C@@H](N)Cc1ccc(O)cc1)[C@@H](C)O)[C@@H](C)O)C(C)C)[C@@H](C)CC)[C@@H](C)CC)C(=O)N[C@@H](CCC(=O)O)C(=O)NCC(=O)NCC(=O)N[C@@H](CCCCNC(=O)COCCOCCNC(=O)COCCOCCNC(=O)CC[C@H](NC(=O)CCCCCCCCCCCCC(=O)O)C(=O)O)C(=O)N[C@@H](CO)C(=O)N[C@@H](CO)C(=O)NCC(=O)N[C@@H](C)C(=O)N1CCC[C@H]1C(=O)N1CCC[C@H]1C(=O)N1CCC[C@H]1C(=O)N[C@@H](CO)C(N)=O [Example 90] (H-Y[Aib]EGT[αMePhe(2-F)]TSDVSI[αMeL]LD[Orn]K([AEEA-AEEA-γGlu-C14 diacid])AQ[Aib]EFI[dE][αMeY]LIEGGK([AEEA-AEEA-γGlu-C14 diacid])SSGAPPPS-NH2) | > 9950 nM | 96.2 ± 1.5% | 93 ± 3.31% |  | > 9950 nM | 0.221 nM |  |  | 23.4 nM | 96.6%
